Source: publication PMC5826336 (Frontiers in Synaptic Neuroscience, 2018)
Like-named read-outs stand apart in the source and are kept apart here.

Legend:
Format in all cases: cell-based
human D2R long isoform [1] = target: T1, human D2R long isoform (Homo sapiens, UniProt P14416); assay: HitHunter cAMP assay, inhibition of forskolin-stimulated cAMP, agonist mode
T1 construct: gene DRD2; full-length long isoform stably expressed in CHO-K1 cells from DiscoverX, HitHunter cAMP assay
Excerpt: HitHunter cAMP assay, inhibition of forskolin-stimulated cAMP, agonist mode on human D2R long isoform

[2] = target: T2, D2R long isoform (PathHunter) (Homo sapiens, UniProt P14416); assay: PathHunter beta-arrestin recruitment, agonist mode
T2 construct: gene DRD2; long isoform in CHO-K1 PathHunter cells (DiscoverX), beta-galactosidase enzyme-fragment complementation with beta-arrestin; reporter tags not detailed
Excerpt: PathHunter beta-arrestin recruitment, agonist mode on D2R long isoform (PathHunter)

human D2R long isoform [3] = target: T1, human D2R long isoform; assay: antagonism of D2R cAMP and beta-arrestin signaling (data not shown); settings: CHO-K1
[4] = read-out: cAMP inhibition assay / EC50 (μM ± SEM)
[5] = read-out: cAMP inhibition assay / EC50 (μM ± S.E.M.)

T1 sequence (P14416 whole entry, canonical isoform): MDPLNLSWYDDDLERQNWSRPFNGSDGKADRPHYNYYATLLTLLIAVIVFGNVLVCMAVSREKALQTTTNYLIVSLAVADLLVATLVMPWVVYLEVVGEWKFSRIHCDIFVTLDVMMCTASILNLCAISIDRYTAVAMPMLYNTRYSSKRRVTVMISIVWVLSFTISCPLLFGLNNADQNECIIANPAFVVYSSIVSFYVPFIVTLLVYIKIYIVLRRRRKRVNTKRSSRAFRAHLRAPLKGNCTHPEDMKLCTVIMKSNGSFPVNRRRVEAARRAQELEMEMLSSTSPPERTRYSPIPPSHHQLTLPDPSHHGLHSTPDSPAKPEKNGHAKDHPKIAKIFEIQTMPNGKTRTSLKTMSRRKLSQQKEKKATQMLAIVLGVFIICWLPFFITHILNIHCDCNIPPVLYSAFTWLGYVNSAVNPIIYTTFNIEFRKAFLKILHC
T2 sequence (P14416 whole entry, the tested form may be a part, canonical isoform): as the sequence (P14416 whole entry, canonical isoform) above

SMILES	EC50 (human D2R long isoform [1]; [4]) [µM]	EC50 [2] [µM]	EC50 (human D2R long isoform [1]; [5]) [µM]	antagonism of D2R cAMP and beta-arrestin signaling (data not shown) (human D2R long isoform [3])
Oc1c(CN2CCN(c3ccccn3)CC2)cc(Cl)c2cccnc12 [compound 1, MLS1547]	2.2 ± 0.6	–	–	–
Oc1c(CN2CCN(c3ccccn3)CC2)ccc2cccnc12 [compound 2]	0.3 ± 0.09	0.9 ± 0.3	–	–
Oc1c(CN2CCN(c3ccccn3)CC2)cc(Br)c2cccnc12 [compound 3]	7.9 ± 2.1	–	–	–
COc1c(CN2CCN(c3ccccn3)CC2)cc(Cl)c2cccnc12 [compound 4]	13.4 ± 11.7	–	–	–
Clc1c(CN2CCN(c3ccccn3)CC2)ccc2cccnc12 [compound 7]	6.6 ± 5.5	7.3 ± 1.8	–	–
c1ccc(N2CCN(Cc3cccc4ccccc34)CC2)nc1 [compound 12]	0.7 ± 0.7	–	–	–
Oc1c(CN2CCN(c3cnccn3)CC2)cc(Cl)c2cccnc12 [compound 18]	–	–	3.5 ± 3.4	–
Oc1c(CN2CCN(c3ncccn3)CC2)cc(Cl)c2cccnc12 [compound 19]	–	0.5 ± 0.3	0.7 ± 0.2	–
Oc1c(CN2CCN(c3ccccc3)CC2)cc(Cl)c2cccnc12 [compound 23]	–	–	2.8 ± 1.2	–
Oc1c(CN2CCN(C3CCCCC3)CC2)cc(Cl)c2cccnc12 [compound 24]	–	–	–	compounds with cyclohexane substituents retained binding affinity for the D2R
c1cc2ccc(CN3CCN(C4CCCCC4)CC3)cc2[nH]1 [compound 50]	–	–	–	compounds with cyclohexane substituents retained binding affinity for the D2R

The next lines start with results.

EC50 (human D2R long isoform [1]; [4]) [µM]	EC50 [2] [µM]	EC50 (human D2R long isoform [1]; [5]) [µM]	SMILES	antagonism of D2R cAMP and beta-arrestin signaling (data not shown) (human D2R long isoform [3])
–	> 39	–	c1cncc(N2CCN(Cc3ccc4cc[nH]c4c3)CC2)c1 [compound 25]	–
–	7.7 ± 0.3	13.3 ± 8.6	c1cncc(N2CCN(Cc3cccc4ccccc34)CC2)c1 [compound 28]	–
–	24.8 ± 15.5	–	c1ccc2cc(CN3CCN(c4cnccn4)CC3)ccc2c1 [compound 37]	–
–	–	27.3 ± 18.2	c1ccc2c(CN3CCN(c4cnccn4)CC3)cccc2c1 [compound 38]	–
–	0.1 ± 0.01	0.04 ± 0.01	c1cnc(N2CCN(Cc3ccc4cc[nH]c4c3)CC2)nc1 [compound 43]	–
–	1 ± 0.2	0.6 ± 0.5	c1cnc(N2CCN(Cc3cc4ccccc4[nH]3)CC2)nc1 [compound 44]	–
–	2.6 ± 1.1	0.8 ± 0.1	c1cnc(N2CCN(Cc3ccc4ccccc4c3)CC2)nc1 [compound 45]	–
–	14.5 ± 1.5	8.5 ± 4	c1cnc(N2CCN(Cc3cccc4ccccc34)CC2)nc1 [compound 46]	–
